Data published in patent US5160483A, “Fragment of TNF-α for promoting wound healing” (The University of Tennessee Research Corporation, priority 1991, dated 1992).
Where two headings read alike, the source gives them in different places.

How the values were obtained:
fibroblasts [1] = assay: Zigmond-Hirsch checkerboard analysis of fibroblast migration in chemotaxis chamber; format: cell-based
Protocol: (§1) Solutions of varying concentrations of the fragment of TNF-α comprising amino acids 31 through 68 SEQ ID No.: 1 in phosphate buffered saline (PBS) were added to the lower compartment of chemotaxis chambers. The number of fibroblasts migrating to the lower compartment was counted. The response curve is bell-shaped, with a maximum at 100 nM. An analysis of the effects of varying concentration gradients of the protein fragment (a Zigmond-Hirsch checkerboard analysis) was performed by adding different concentrations of the fragment to the upper and/or lower compartments of a chemotaxis chamber. The number of fibroblasts migrating to the lower surface of each filter was counted.
The fibroblasts migrate from the upper chamber to the lower chamber since there is very little of the fragment in the upper chamber and there is quite a large concentration of the fragment in the lower chamber. This simulates the condition at a wound site where there has been an application of the fragment to the wound. The concentration of the fragment in the surrounding tissue will be quite low compared to the concentration at the wound site. Therefore, the fibroblasts will migrate from the area of low concentration of the fragment to the area of high concentration.

[2] = tested on: fibroblasts and monocytes; assay: Intradermal injection in guinea pigs; format: in vivo
From the text: The composition accomplishes this without the problems attendant on the previously developed materials. The fragment includes amino acids 31 through 68 SEQ ID No.: 1 of TNF-α which has the sequence: [drawing 1]

fibroblasts [3] = assay: Chemotaxis of fibroblasts in chemotaxis chambers, fragment in lower compartment (FIG. 1); format: cell-based; details: fragment in PBS in lower compartment of chemotaxis chambers
Protocol: as §1

[4] = known property of the complete protein; cited from earlier work

fragment of TNF-α comprising amino acids 31 through 68 SEQ ID No.: 1: 38-residue synthetic polypeptide, amino acids 31 through 68 of TNF-α (SEQ ID No.: 1), about 3,800 Da (RRANALLANGVELRDNQLVVPSEGLYLIYSQVLFKGQG; Tumor necrosis factor, soluble form; UniProt P01375 107-144, looked up, fragment)
number of fibroblasts migrating to the lower surface of each filter (fibroblasts [1]; upper compartment 0 nM, lower compartment 21 nM): 31 ± 4 | number of fibroblasts migrating to the lower surface of each filter (fibroblasts [1]; upper compartment 0 nM, lower compartment 41 nM): 57 ± 3 | number of fibroblasts migrating to the lower surface of each filter (fibroblasts [1]; upper compartment 0 nM, lower compartment 164 nM): 73 ± 4 | number of fibroblasts migrating to the lower surface of each filter (fibroblasts [1]; upper compartment 0 nM, lower compartment 329 nM): 86 ± 13 | number of fibroblasts migrating to the lower surface of each filter (fibroblasts [1]; upper compartment 21 nM, lower compartment 0 nM): 20 ± 6 | number of fibroblasts migrating to the lower surface of each filter (fibroblasts [1]; upper compartment 21 nM, lower compartment 21 nM): 9 ± 1 | number of fibroblasts migrating to the lower surface of each filter (fibroblasts [1]; upper compartment 21 nM, lower compartment 41 nM): 49 ± 7 | number of fibroblasts migrating to the lower surface of each filter (fibroblasts [1]; upper compartment 21 nM, lower compartment 164 nM): 46 ± 2 | number of fibroblasts migrating to the lower surface of each filter (fibroblasts [1]; upper compartment 21 nM, lower compartment 329 nM): 67 ± 2 | number of fibroblasts migrating to the lower surface of each filter (fibroblasts [1]; upper compartment 41 nM, lower compartment 0 nM): 31 ± 2 | number of fibroblasts migrating to the lower surface of each filter (fibroblasts [1]; upper compartment 41 nM, lower compartment 21 nM): 28 ± 5 | number of fibroblasts migrating to the lower surface of each filter (fibroblasts [1]; upper compartment 41 nM, lower compartment 41 nM): 26 ± 4 | number of fibroblasts migrating to the lower surface of each filter (fibroblasts [1]; upper compartment 41 nM, lower compartment 164 nM): 47 ± 5 | number of fibroblasts migrating to the lower surface of each filter (fibroblasts [1]; upper compartment 41 nM, lower compartment 329 nM): 57 ± 6 | number of fibroblasts migrating to the lower surface of each filter (fibroblasts [1]; upper compartment 164 nM, lower compartment 0 nM): 14 ± 2 | number of fibroblasts migrating to the lower surface of each filter (fibroblasts [1]; upper compartment 164 nM, lower compartment 21 nM): 11 ± 1 | number of fibroblasts migrating to the lower surface of each filter (fibroblasts [1]; upper compartment 164 nM, lower compartment 41 nM): 16 ± 3 | number of fibroblasts migrating to the lower surface of each filter (fibroblasts [1]; upper compartment 164 nM, lower compartment 164 nM): 22 ± 4 | number of fibroblasts migrating to the lower surface of each filter (fibroblasts [1]; upper compartment 164 nM, lower compartment 329 nM): 43 ± 3 | number of fibroblasts migrating to the lower surface of each filter (fibroblasts [1]; upper compartment 329 nM, lower compartment 0 nM): 16 ± 3 | number of fibroblasts migrating to the lower surface of each filter (fibroblasts [1]; upper compartment 329 nM, lower compartment 21 nM): 10 ± 1 | number of fibroblasts migrating to the lower surface of each filter (fibroblasts [1]; upper compartment 329 nM, lower compartment 41 nM): 9 ± 1 | number of fibroblasts migrating to the lower surface of each filter (fibroblasts [1]; upper compartment 329 nM, lower compartment 164 nM): 12 ± 2 | number of fibroblasts migrating to the lower surface of each filter (fibroblasts [1]; upper compartment 329 nM, lower compartment 329 nM): 8 ± 1 | type of fibroblast migration induced (checkerboard analysis) (fibroblasts [1]; varying concentration gradients, Table I): induced mostly chemotactic migration of fibroblasts | cytotoxicity (Cytotoxicity): without any showing of cytotoxicity | amount of connective tissue at the injection site [2]: increase in the amount of connective tissue at the injection site | migration of fibroblasts and monocytes into the area of the wound [2]: increased migration of fibroblasts and monocytes into the area of the wound | concentration at the maximum of the bell-shaped fibroblast migration response curve (fibroblasts [3]): 100 nM

TNF-α
cytotoxicity [4]: known to be a cytotoxin
